# Experiments:
# [1] = test system: pollakiuria model rats induced by acetic acid; test: Suppression of increase in urinary frequency in rats induced by acetic acid; format: in vivo, rat; details: awake rats; 10 mg/kg orally; dosed 2 days after 1% acetic acid into bladder; frequency within 6 hours
# Method: (ii) Experiment of Suppression of an Increase in Urinary Frequency in Rats Induced by Acetic Acid
# Abdomen of a rat was subjected to a midline incision under anesthetization with pentobarbital (50 mg/kg, i.p.) and bladder was exposed. Urine in the bladder was removed using a syringe equipped with an intraocular injection needle (30 G×¾). After that, 0.5 ml of 1% acetic acid solution was injected into the bladder using a syringe equipped with an intraocular injection needle (30 G×¾) and injury was closed.
# With regard to measurement of urination of the animal, the animal was placed in a metabolism cage and urination was recorded with the lapse of time using a urination measuring apparatus (K. K. Neuroscience).
# When acetic acid was injected into bladder of rat, urination frequency increased continuously and pollakiuria where each urinated amount decreased was induced. Each of the test drugs was evaluated using the stimulated bladder.
# Evaluation of the test drug was conducted in such a manner that the test drug was administered after 2 days from injection of acetic acid into the bladder and suppressing rates for the frequency increased within 6 hours thereafter was compared. Suppressing rate (%) of frequency by each compound was determined by the following formula. […]
# [2] = test system: pollakiuria model rats induced by sulprostone; test: Suppression of increase in urinary frequency of rats induced by sulprostone; format: in vivo, rat; details: awake rats
compound,measurement,setting,value
"Cc1cc(Cl)ccc1S(=O)(=O)NC[C@H]1C2CCC(CC2)[C@@H]1/C=C\CCCC(=O)O [(1), 6-[(2S,3S)-3-(4-chloro-2-methylphenylsulfonyl-aminomethyl)bicyclo[2.2.2]octan-2-yl]-5Z-hexenoic acid]","Inhibiting Rate (%) for Urinary Frequency, Acetic Acid-Induced Pollakiuria Model",[1],44.3 ± 12.4 %
same,"Inhibiting Rate (%) for Urinary Frequency, Sulprostone-Induced Pollakiuria Model","[2]; 10 mg/kg orally, sulprostone 200 μg/kg s.c. 30 minutes later, frequency over 3 hours",58.0 ± 12.0 %
"CCN(Cc1cc(Cl)ccc1OCC(C)C)c1ccc(C(=O)NS(=O)(=O)c2c(C)noc2C)nn1 [(3), N-(3,5-dimethylisoxazol-4-ylsulfonyl)6-[N-(5-chloro-2-(isobutyloxy)benzyl)-N-ethylamino]pyridazine-3-carboxamide]","Inhibiting Rate (%) for Urinary Frequency, Sulprostone-Induced Pollakiuria Model","[2]; 3 mg/kg subcutaneously, frequency over 3 hours after sulprostone",49.2 ± 2.8 %
"Cl.O=C(CCc1ccncc1)NNC(=O)N1Cc2ccccc2Oc2ccc(Cl)cc21 [(2), 8-chlorodibenz[b,f][1.4]oxazepine-10(11H)-carboxylic acid.2-[1-oxo-3-(4-pyridinyl)propyl]hydrazide.monohydrochloride]","Inhibiting Rate (%) for Urinary Frequency, Sulprostone-Induced Pollakiuria Model","[2]; 10 mg/kg subcutaneously, frequency over 3 hours after sulprostone",38.2 ± 4.6 %
